Source: US4668799A, “Anti-hepatitis and anti-cirrhotic 1,3-dithiol-2-ylidene derivatives, and pharmaceutical compositions therefor” (Banyu Pharmaceutical Co., Ltd., priority 1985, dated 1987)
Like-named read-outs stand apart in the source and are kept apart here.

Legend:
[1] = tested on: liver (acute liver injury induced by carbon tetrachloride); test: Protective Effect on Acute Liver Injury Induced by Carbon Tetrachloride; format: in vivo, mice (ddY); settings: mice; for inhibition in vivo at 50 mg/kg: Mus musculus, po, 50 mg/kg p.o. 6 h before CCl4, CCl4 alone = 0, normal = 100; for Liver Damage Index: 50 mg/kg p.o. 6 h before CCl4 0.05 ml/kg p.o., visual score 0 normal, 2 slightly, 4 distinctly, 6 remarkably injured, CCl4 alone 6.0
Description: A test compound was dissolved or suspended in olive oil and administered orally at a dose of 50 mg/kg to mice (ddY, mice, .male., 23±2 g, n=5). After 6 hours, carbon tetrachloride (0.05 ml/kg) was administered orally, 24 Hours after the administration of carbon tetrachloride, BSP (sodium sulfobromophthalene; 75 mg/kg) was administered intravenously. Thirty minutes later, the cardiac blood was collected, and GPT (glutamic-pyruvic transaminase) activity and the retention rate of BSP in the plasma were measured. Further, the liver injury immediately after the collection of the blood was visually observed and evaluated by the following score for liver damage index.

[2] = tested on: mice; test: Acute Toxicity Test; format: in vivo; settings: oral, one week after administration
Description: (§1) A test compound was dissolved or suspended in olive oil and administered orally to mice (ddY mice, .male., 23±2 g, n=5). The acute toxicity value (LD50) was determined from the mortality one week after the administration.

[3] = Acute Toxicity Test; format: in vivo; settings: mouse, in vivo; mice, oral, mortality one week after administration
Description: as §1

[4] = tested on: liver protein synthesis; test: Effect on Protein Synthesis in Liver; format: in vivo, rats (Wister strain); settings: rats, 100 mg/kg p.o. for 3 days
Description: Compound 6 was dissolved in olive oil and orally administered successively for 3 days at a dose of 100 mg/kg to rats (Wister strain, .male., 180±10 g, 6 week-old, n=5). 24 Hours after the administration of the test compound was completed, the animals were sacrificed. The effect on the protein synthesis in the liver was evaluated by determining the liver weight and protein content.

[5] = tested on: fatty liver induced by carbon tetrachloride; test: Therapeutic Effect on Fatty Liver Induced by Carbon Tetrachloride; format: in vivo, rats (SD strain); settings: rats, 50 mg/kg p.o. for 7 days
Description: Carbon tetrachloride (1 ml/kg) was subcutaneously administered to rats (SD strain, .male., 38 week-old, n=5) for 4 days. Upon expiration of 3 days from the administration of carbon tetrachloride, Compound 6 was orally given successively for 7 days at the dose of 50 mg/kg. On the 8th day, the animals were sacrificed by exsanguination. The therapeutic effect was evaluated by examining the content of triglyceride in the liver and the concentration of apoprotein B in the plasma.

[6] = tested on: liver damages; settings: in vivo; cited from earlier work
[7] = BSP 75 mg/kg i.v., retention in plasma after 30 min, read-out: % Prophylaxis BSP
[8] = plasma GPT activity, read-out: % Prophylaxis p-GPT

Row | SMILES | inhibition in vivo at 50 mg/kg [1, 7] | inhibition in vivo at 50 mg/kg [1, 8] | Liver Damage Index [1] | toxicity (in words) [2] | LD50 at 168 h [3] | further results
1 | CC(=O)C(C(C)=O)=C1SC=CS1 [Compound 1, 3-(1,3-dithiol-2-ylidene)-2,4-pentanedione] | 80% | 25% | 5.0 |  |  | 
2 | CCC(=O)C(C(C)=O)=C1SC=CS1 [Compound 2, 3-(1,3-dithiol-2-ylidene)-2,4-hexanedione] | 85% | 72% | 1.4 |  |  | 
3 | CCOCC(=O)C(C(C)=O)=C1SC=CS1 [Compound 3, 3-(1,3-dithiol-2-ylidene)-1-ethoxy-2,4-pentanedione] | 102% | 97% | 2.2 |  |  | 
4 | CC(C)CC(=O)C(C(=O)CC(C)C)=C1SC=CS1 [Compound 4, 5-(1,3-dithiol-2-ylidene)-2,8-dimethyl-4,6-nonanedione] | 108% | 100% | 1.0 | low toxicity | ≥ 2000 mg/kg | 
5 | CC(=O)C(C(=O)C1CCCCC1)=C1SC=CS1 [Compound 5, 2-(1,3-dithiol-2-ylidene)-1-cyclohexyl-1,3-butanedione] | 96% | 89% | 2.8 | low toxicity | ≥ 2000 mg/kg | 
6 | CC(=O)C(C(=O)c1ccccc1)=C1SC=CS1 [Compound 6, 2-(1,3-dithiol-2-ylidene)-1-phenyl-1,3-butanedione] |  |  |  | low toxicity | ≥ 2000 mg/kg | effect for stimulating the protein metabolic function of the liver (in words) [4]: substantial effect for stimulating the protein metabolic function of the liver; effect for curing the fatty liver (in words) [5]: significant effect for curing the fatty liver
7 | CCCC(=O)C(C(=O)c1ccccc1)=C1SC=CS1 [Compound 7, 2-(1,3-dithiol-2-ylidene)-1-phenyl-1,3-hexanedione] |  |  |  | low toxicity | ≥ 2000 mg/kg | 
8 | CC(C)CC(=O)C(C(=O)c1ccccc1)=C1SC=CS1 [Compound 8, 2-(1,3-dithiol-2-ylidene)-5-methyl-1-phenyl-1,3-hexanedione] |  |  |  | low toxicity | ≥ 2000 mg/kg | 
9 | CCCCCCCCCCCCCCCC(=O)C(C(=O)c1ccccc1)=C1SC=CS1 [Compound 10, 2-(1,3-dithiol-2-ylidene)-1-phenyl-1,3-octadecanedione] | 78% | 42% | 2.0 |  |  | 
10 | CC(=O)C(C(=O)c1ccc(C)cc1)=C1SC=CS1 [Compound 12, 2-(1,3-dithiol-2-ylidene)-1-(4-methylphenyl)-1,3-butanedione] |  |  |  | low toxicity | ≥ 2000 mg/kg | 
11 | COc1ccc(C(=O)C(C(C)=O)=C2SC=CS2)cc1 [Compound 17, 2-(1,3-dithiol-2-ylidene)-1-(4-methoxyphenyl)-1,3-butanedione] |  |  |  | low toxicity | ≥ 2000 mg/kg | 
12 | CC(=O)C(C(=O)c1cccc2ccccc12)=C1SC=CS1 [Compound 27, 2-(1,3-dithiol-2-ylidene)-1-(1-naphthyl)-1,3-butanedione] |  |  |  | low toxicity | ≥ 2000 mg/kg | 
13 | CC(=O)C(C(=O)c1ccc2ccccc2c1)=C1SC=CS1 [Compound 28, 2-(1,3-dithiol-2-ylidene)-1-(2-naphthyl)-1,3-butanedione] |  |  |  | low toxicity | ≥ 2000 mg/kg | 
14 | O=C1CCCC(=O)C1=C1SC=CS1 [Compound 41, 2-(1,3-dithiol-2-ylidene)-1,3-cyclohexanedione] | 66% | 29% | 6.0 |  |  | 
15 | CC1CCC(=O)C(=C2SC=CS2)C1=O (centres unmarked) [Compound 42, 2-(1,3-dithiol-2-ylidene)-4-methyl-1,3-cyclohexanedione] | 60% | 29% | 6.0 |  |  | 
16 | CC(C)C1CCC(=O)C(=C2SC=CS2)C1=O (centres unmarked) [Compound 43, 2-(1,3-dithiol-2-ylidene)-4-isopropyl-1,3-cyclohexanedione] | 95% | 67% | 5.6 |  |  | 
17 | CC1(C)CC(=O)C(=C2SC=CS2)C(=O)C1 [Compound 44, 2-(1,3-dithiol-2-ylidene)-5,5-dimethyl-1,3-cyclohexanedione] | 111% | 95% | 1.2 |  |  | 
18 | CC(=O)C(C(=O)c1ccc(O)cc1)=C1SC=CS1 [Compound 45, 2-(1,3-dithiol-2-ylidene)-1-(4-hydroxyphenyl)-1,3-butanedione] |  |  |  | low toxicity | ≥ 2000 mg/kg | 
19 | CC(C)OC(=O)C(C(=O)OC(C)C)=C1SC=CS1 [Malotilate] |  |  |  |  |  | effectiveness for the treatment of liver damages (in words) [6]: effective for the treatment of liver damages
